Where a chain is given by its changes, count along the chain named. Where a SMILES comes first, the peptide text is derived from it. Bridges are numbered along the chain shown (N, C = ends).

The values below come from publication PMC5908784, “Extracellular loops 2 and 3 of the calcitonin receptor selectively modify agonist binding and efficacy” (Biochemical Pharmacology, 2018).

Holding throughout (test): Heterologous whole cell competition binding
Details in all cases: heterologous competition of 125I-sCT(8-32), whole cells, mean ± S.E.M., SEM

The target of test [1] is T1, hCTR L291A (Homo sapiens, UniProt P30988, L291A).
T1 construct: expressed in transfected cells
T1 sequence (P30988 25-474 L291A): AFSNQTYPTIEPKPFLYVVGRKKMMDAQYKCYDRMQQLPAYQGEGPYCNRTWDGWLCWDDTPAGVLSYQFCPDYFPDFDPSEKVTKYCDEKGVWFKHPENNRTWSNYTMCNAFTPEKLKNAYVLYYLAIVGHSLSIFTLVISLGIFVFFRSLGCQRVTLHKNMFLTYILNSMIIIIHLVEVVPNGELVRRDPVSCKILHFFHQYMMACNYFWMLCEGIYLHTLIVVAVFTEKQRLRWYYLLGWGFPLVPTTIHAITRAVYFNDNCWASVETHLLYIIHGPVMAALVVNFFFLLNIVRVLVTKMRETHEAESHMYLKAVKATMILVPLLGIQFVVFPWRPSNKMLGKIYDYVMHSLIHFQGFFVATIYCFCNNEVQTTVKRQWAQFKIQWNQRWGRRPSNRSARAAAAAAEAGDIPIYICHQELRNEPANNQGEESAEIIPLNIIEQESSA
In short, it runs like this:
(§1)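 Reported pKi values come from whole-cell displacement of a radiolabelled tracer, incubated overnight and quantified by gamma counting after washing out free ligand, with correction for tracer occupancy (Cheng-Prusoff).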

The target in test [2] is T2, hCTR M376A (Homo sapiens, UniProt P30988, M376A).
T2 construct: c-Myc (N); expressed in transfected cells
T2 sequence (P30988 25-474 M376A): T1 sequence (P30988 25-474 L291A) with A267L, M352A
Put shortly: as §1

Test [3] concerns the target T3, hCTR S292A (Homo sapiens, UniProt P30988, S292A).
T3 construct: expressed in transfected cells
T3 sequence (P30988 25-474 S292A): T1 sequence (P30988 25-474 L291A) with A267L, S268A
Put shortly:
as §1

For test [4], the target named is T4, hCTR V375A (Homo sapiens, UniProt P30988, V375A).
T4 construct: c-Myc (N); expressed in transfected cells
T4 sequence (P30988 25-474 V375A): T1 sequence (P30988 25-474 L291A) with A267L, V351A
Put shortly: as §1

The target of test [5] is T5, hCTR W361A (Homo sapiens, UniProt P30988, W361A).
T5 construct: expressed in transfected cells
T5 sequence (P30988 25-474 W361A): T1 sequence (P30988 25-474 L291A) with A267L, W337A
In short, it runs like this: as §1

For the compound `CSCC[C@H](NC(=O)CNC(=O)[C@H](CO)NC(=O)[C@H](Cc1ccccc1)NC(=O)[C@H](CCCNC(=N)N)NC(=O)[C@H](Cc1c[nH]cn1)NC(=O)[C@H](Cc1ccccc1)NC(=O)[C@H](CC(N)=O)NC(=O)[C@H](CC(N)=O)NC(=O)[C@H](CC(C)C)NC(=O)[C@H](CC(N)=O)NC(=O)[C@H](CCCNC(=N)N)NC(=O)[C@H](Cc1c[nH]c2ccccc12)NC(=O)[C@H](Cc1ccc(O)cc1)NC(=O)[C@H](C)NC(=O)[C@H](CO)NC(=O)[C@H](CC(C)C)NC(=O)[C@@H](NC(=O)[C@@H]1CSSC[C@H](N)C(=O)N[C@@H](CO)C(=O)N[C@@H](CC(N)=O)C(=O)N[C@@H](CC(C)C)C(=O)N[C@@H](CO)C(=O)N[C@@H]([C@@H](C)O)C(=O)N1)C(C)C)C(=O)NCC(=O)N[C@@H](Cc1ccccc1)C(=O)NCC(=O)N1CCC[C@H]1C(=O)N[C@@H](CCC(=O)O)C(=O)N[C@H](C(=O)N1CCC[C@H]1C(N)=O)[C@@H](C)O` [pCT] (H-CSNLSTCVLSAYWRNLNNFHRFSGMGFGPETP-NH2; disulfide 1-7), the inhibitory constant (Ki) (as a rule, a dissociation constant, usually derived from enzyme kinetics or from competition with a known ligand) in test [1] is 67.6 nM; in test [2], 7.76 nM; in test [3], 2.88 nM; in test [4], 5.13 nM; in test [5], 33.9 nM.
